# Laboratory results as given in US10941121B2 (AZIENDA OSPEDALIERA UNIVERSITARIA SENESE, priority 2015, dated 2021).
# Where two headings read alike, the source gives them in different places.
# Key:
# [1] = tested on: HIV-1 strains carrying resistance mutations; experiment: microbe, parasite or virus in culture; type: cell-based; conditions: for IC50: Human immunodeficiency virus 1, TZM-bl
# NS3 (DENV) = NS3 (DENV) (Orthoflavivirus denguei (Dengue virus), UniProt P29990); experiment: Selectivity of 20a: NS3 (DENV); type: biochemical
# [2] = tested on: human liver microsome (HLM); experiment: Microsomal Stability Assay; conditions: human liver microsomes, 37 °C, 60 min, compound 50 μM; percentage of not metabolized compound
# [3] = tested on: HCV Jc1 (genotype 2a virus); experiment: HCV infectious cell culture system, NS5A immunostaining; conditions: Hepatitis C virus, Huh7.5, read-out: HCV EC50
# [4] = Cytotoxicity, MTT method in LUNET cells; type: cell-based; conditions: human; MMT method in LUNET cells; read-out: CC50 (μM) non-infected cells
# Experimental: Toxicity (CC50) was analysed in the Lunet/HuH7 cells by the addition of 10 μL of MTT (3-(4,5-dimethylthiazol-2-yl)-2,5-diphenyltetrazolium bromide) per well. After 4 h of incubation at 37° C. in a humidified atmosphere with 5% CO2, the amount of formazan produced was quantified spectrophotometrically at 550/620 nm (C. Pannecouque et al, Nature protocol 2008; 3 (3): 427-434). […] These assays were done in duplicate.
# HIV (PBMC) = experiment: HIV infectious cell culture system in PBMC, HIV-1 RNA in supernatant; conditions: Human immunodeficiency virus 1, PBMC, 72 h, read-out: EC50 HIV (PBMC) 72 h
# [5] = Cytotoxicity in PBMC, CellTiter 96 MTS viability assay; type: cell-based; conditions: human, human primary PBMCs
# [6] = Cytotoxicity in Huh7 cells, nuclei counts; conditions: human
# [7] = Parallel Artificial Membrane Permeability Assay (PAMPA); type: in vitro ADME
# Experimental: Parallel Artificial Membrane Permeability Assay (PAMPA). Donor solution (0.5 mM) was prepared by diluting 1 mM dimethylsulfoxide (DMSO) compound stock solution using phosphate buffer (pH 7.4, 0.025 M). Filters were coated with 5 μL of a 1% (w/v) dodecane solution of phosphatidylcholine prepared from CHCl3 solution 10% w/v, for intestinal permeability. Donor solution (150 μL) was added to each well of the filter plate. To each well of the acceptor plate were added […] (50% DMSO in phosphate buffer). All compounds were tested in three different plates on different days. The sandwich was incubated for 5 h at room temperature under gentle shaking. After the incubation time, the plates were separated, and samples were taken from both receiver and donor sides and analyzed using LC with UV detection at 280 nm.
# LC analysis were performed with a Varian Prostar HPLC system (Varian Analytical Instruments, USA) equipped with a binary pump with a manual injection valve and model Prostar 325 UV-VIS Detector.
# Permeability (Papp) for PAMPA was calculated according to the following equation, obtained from Wohnsland and Faller and Sugano et al. equation with some modification in order to obtain permeability values in cm s^−1,
# where VA is the volume in the acceptor well, VD is the volume in the donor well (cm^3), A is the “effective area” of the membrane (cm^2), t is the incubation time (s) and r the ratio between drug concentration in the acceptor and equilibrium concentration of the drug in the total volume (VD+VA). Drug concentration is estimated by using the peak area integration.
# Membrane retentions (%) were calculated according to the following equation: […]
# where r is the ratio between drug concentration in the acceptor and equilibrium concentration, D, A, and Eq represented drug concentration in the donor, acceptor and equilibrium solution, respectively.
# ATPase DDX3 = target: T1, ATPase DDX3 (Homo sapiens, UniProt O00571); experiment: Selectivity of 20a: ATPase DDX3; type: biochemical; conditions: >200 = less than 20% of inhibition at 200 μM, the highest concentration tested
# T1 construct: made in house; host or cells: E. coli
# Water Solubility Assay = type: physicochemical; conditions: thermodynamic from solid
# Experimental: Water Solubility Assay. Each solid compound (1 mg) was added to 1 mL of water. The samples were shaked in a shaker bath at room temperature for 24-36 h. The suspensions were filtered through a 0.45 μm nylon filter (Acrodisc), and the solubilized compound determined by LC-MS-MS assay. For each compound the determination was performed in triplicate.
# For the quantification was used an LC-MS system consisted of a Varian apparatus (Varian Inc) including a vacuum solvent degassing unit, two pumps (212-LC), a Triple Quadrupole MSD (Mod. 320-LC) mass spectrometer with ES interface and Varian MS Workstation System Control Vers. 6.9 software. […] The flow rate was 0.2 mL min^−1 and injection volume was 5 μL. The instrument operated in positive mode and parameters were: detector 1850 V, drying gas pressure 25.0 psi, desolvation temperature 300.0° C., nebulizing gas 40.0 psi, needle 5000 V and shield 600 V. Nitrogen was used as nebulizer gas and drying gas. Collision induced dissociation was performed using Argon as the collision gas at a pressure of 1.8 mTorr in the collision cell.
# T1 sequence (O00571 whole entry): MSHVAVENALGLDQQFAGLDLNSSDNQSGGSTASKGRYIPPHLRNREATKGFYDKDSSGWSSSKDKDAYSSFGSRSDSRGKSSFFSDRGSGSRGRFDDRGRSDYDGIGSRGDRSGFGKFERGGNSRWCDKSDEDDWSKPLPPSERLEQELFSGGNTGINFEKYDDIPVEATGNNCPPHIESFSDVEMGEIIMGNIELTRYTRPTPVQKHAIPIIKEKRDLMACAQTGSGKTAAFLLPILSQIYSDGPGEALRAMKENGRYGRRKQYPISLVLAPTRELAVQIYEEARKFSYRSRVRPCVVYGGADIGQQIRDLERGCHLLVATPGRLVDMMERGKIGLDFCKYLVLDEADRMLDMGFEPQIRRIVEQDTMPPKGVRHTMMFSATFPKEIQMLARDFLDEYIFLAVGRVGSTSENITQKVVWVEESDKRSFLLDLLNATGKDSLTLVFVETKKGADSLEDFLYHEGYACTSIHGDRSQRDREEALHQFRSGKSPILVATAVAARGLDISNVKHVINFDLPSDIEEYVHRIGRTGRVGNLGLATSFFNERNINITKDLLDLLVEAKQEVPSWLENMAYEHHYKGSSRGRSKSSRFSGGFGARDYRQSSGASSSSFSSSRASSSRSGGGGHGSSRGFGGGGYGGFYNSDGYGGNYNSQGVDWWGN
# Chain of NS3 (DENV) (P29990 1476-2093): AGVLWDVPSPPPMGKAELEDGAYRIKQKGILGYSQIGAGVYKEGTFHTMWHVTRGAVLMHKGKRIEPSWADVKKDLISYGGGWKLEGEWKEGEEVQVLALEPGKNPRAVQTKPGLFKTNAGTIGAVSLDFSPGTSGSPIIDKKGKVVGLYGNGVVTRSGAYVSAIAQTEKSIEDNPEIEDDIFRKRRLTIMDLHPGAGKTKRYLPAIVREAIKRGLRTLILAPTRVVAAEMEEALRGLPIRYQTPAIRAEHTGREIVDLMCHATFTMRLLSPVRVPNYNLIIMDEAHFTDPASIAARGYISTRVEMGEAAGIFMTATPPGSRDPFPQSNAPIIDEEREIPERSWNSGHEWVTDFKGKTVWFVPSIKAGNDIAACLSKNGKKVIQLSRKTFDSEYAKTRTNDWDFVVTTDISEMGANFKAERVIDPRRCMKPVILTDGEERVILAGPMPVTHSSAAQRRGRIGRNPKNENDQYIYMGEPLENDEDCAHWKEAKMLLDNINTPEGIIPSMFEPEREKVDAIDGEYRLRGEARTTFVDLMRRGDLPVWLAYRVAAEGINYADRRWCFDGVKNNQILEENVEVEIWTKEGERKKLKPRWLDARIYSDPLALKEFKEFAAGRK
compound,measurement,setting,value
"CCCCc1cn(-c2ccc(NC(=O)Nc3ccccc3C)cc2)nn1 [Compound 20a, 1-(4-(4-butyl-1H-1,2,3-triazol-1-yl)phenyl)-3-o-tolylurea]",IC50,"[1]; read-out: IC50 [95% CI] (μM), HIV-1 strain 7404",0.22 µM
same,IC50,"[1]; read-out: IC50 [95% CI] (μM), HIV-1 strain 7406",0.33 µM
same,IC50,"[1]; read-out: IC50 [95% CI] (μM), HIV-1 strain 11808",0.23 µM
same,IC50,"[1]; read-out: IC50 [95% CI] (μM), HIV-1 strain 11845",0.37 µM
same,IC50,"[1]; read-out: IC50 [95% CI] (μM), HIV-1 strain 12227",0.94 µM
same,IC50,"[1]; read-out: IC50 [95% CI] (μM), HIV-1 strain 12235",0.36 µM
same,"Fold change, strain 7404","[1]; resistant strain IC50 to wild type strain IC50 ratio, 7404 NRTIs",0.2
same,"Fold change, strain 7406","[1]; resistant strain IC50 to wild type strain IC50 ratio, 7406 NRTIs",0.3
same,"Fold change, strain 11808","[1]; resistant strain IC50 to wild type strain IC50 ratio, 11808 PIs",0.2
same,"Fold change, strain 11845","[1]; resistant strain IC50 to wild type strain IC50 ratio, 11845 INIs",0.3
same,"Fold change, strain 12227","[1]; resistant strain IC50 to wild type strain IC50 ratio, 12227 NNRTIs",0.8
same,"Fold change, strain 12235","[1]; resistant strain IC50 to wild type strain IC50 ratio, 12235 NNRTIs",0.3
same,"activity against resistant HIV viruses, in words",[1]; viruses carrying resistance mutations,retained full activity
same,IC50,NS3 (DENV),> 200 µM
same,Metabolic stability (Sability %),[2],99%
same,EC50,[3],3.8 µM
same,CC50,[4],49.8 µM
same,EC50,HIV (PBMC),30 µM
same,CC50 at 24 h,[5]; 24 h,> 1000 µM
same,CC50 at 48 h,[5]; 48 h,> 1000 µM
same,CC50 at 72 h,[5]; 72 h,> 1000 µM
same,CC50 at 48 h,"[6]; DENV CC50, Huh7 cells, DENV experiment",> 787 µM
same,CC50 at 48 h,"[6]; WNV CC50, Huh7 cells, WNV experiment",> 500 µM
same,"Papp at 5 h, 0.5 mM","[7]; PAMPA, phosphatidylcholine in dodecane, pH 7.4, 5 h, room temperature, read-out: PAMPA Papp *10^−6 (cm/s) GI",2.86 ×10⁻⁶ cm/s
same,PAMPA membrane retention (RM %),[7]; value in brackets in the PAMPA cell,19.1%
same,IC50,ATPase DDX3,> 200 µM
same,solubility,"Water Solubility Assay; experimental aqueous solubility, read-out: LogS (converted)",0.0891 µM
same,solubility,"Water Solubility Assay; room temperature, 24-36 h, read-out: Aq. Solub.",0.135 µg/mL
